Assay results as given in patent publication US10766893B2 (priority 2017, dated 2020).

Columns and labels:
Assay in all cases: biochemical
Format in all cases: biochemical
Details in all cases: 15 nM tritium labelled cAMP, 1 hr at room temperature
[1] = target: PDE1B (Homo sapiens (Human), UniProt Q01064)
Text: (§1) Table 1 lists the IC50 value for inhibition of PDE1 by the compounds of the invention. […] PDE1 assays are described in the Experimental Section.

[2] = target: PDE1C (Homo sapiens (Human), UniProt Q14123)
PDE1C, sequence (Q14123 whole entry): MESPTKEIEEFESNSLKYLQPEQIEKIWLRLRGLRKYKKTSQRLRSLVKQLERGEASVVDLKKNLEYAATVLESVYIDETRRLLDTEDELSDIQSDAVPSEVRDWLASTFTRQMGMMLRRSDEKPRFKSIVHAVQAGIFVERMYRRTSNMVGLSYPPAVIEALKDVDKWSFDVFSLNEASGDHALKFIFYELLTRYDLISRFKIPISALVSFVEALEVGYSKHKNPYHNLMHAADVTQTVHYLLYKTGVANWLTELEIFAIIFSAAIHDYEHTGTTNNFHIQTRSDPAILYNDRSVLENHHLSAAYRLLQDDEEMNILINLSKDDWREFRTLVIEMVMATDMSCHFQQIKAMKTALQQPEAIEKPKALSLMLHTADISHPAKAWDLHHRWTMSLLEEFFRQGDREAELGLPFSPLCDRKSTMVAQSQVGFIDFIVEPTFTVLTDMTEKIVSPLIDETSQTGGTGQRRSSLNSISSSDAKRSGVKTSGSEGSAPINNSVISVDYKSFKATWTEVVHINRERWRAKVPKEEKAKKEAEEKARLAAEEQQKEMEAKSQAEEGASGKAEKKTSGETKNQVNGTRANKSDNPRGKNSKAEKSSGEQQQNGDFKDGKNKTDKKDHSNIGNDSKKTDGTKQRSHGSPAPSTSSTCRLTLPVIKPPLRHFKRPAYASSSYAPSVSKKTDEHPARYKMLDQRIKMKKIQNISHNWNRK
Text: as §1

[3] = target: PDE1A (Homo sapiens (Human), UniProt P54750)
PDE1A, sequence (P54750 whole entry): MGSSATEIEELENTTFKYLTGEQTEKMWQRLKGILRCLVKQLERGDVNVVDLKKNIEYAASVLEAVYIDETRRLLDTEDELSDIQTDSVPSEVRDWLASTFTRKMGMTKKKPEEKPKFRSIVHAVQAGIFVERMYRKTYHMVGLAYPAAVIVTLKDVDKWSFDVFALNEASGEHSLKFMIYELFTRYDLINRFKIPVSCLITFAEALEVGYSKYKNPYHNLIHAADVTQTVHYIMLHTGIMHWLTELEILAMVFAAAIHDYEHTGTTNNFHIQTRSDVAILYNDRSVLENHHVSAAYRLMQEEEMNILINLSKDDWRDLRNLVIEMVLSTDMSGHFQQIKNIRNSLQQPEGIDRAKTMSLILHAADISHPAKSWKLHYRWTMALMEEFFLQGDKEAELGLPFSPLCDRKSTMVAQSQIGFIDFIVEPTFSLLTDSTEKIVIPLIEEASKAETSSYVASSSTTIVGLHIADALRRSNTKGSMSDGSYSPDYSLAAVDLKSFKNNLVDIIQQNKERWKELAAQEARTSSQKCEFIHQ
Text: as §1

PDE1B, sequence (Q01064 whole entry): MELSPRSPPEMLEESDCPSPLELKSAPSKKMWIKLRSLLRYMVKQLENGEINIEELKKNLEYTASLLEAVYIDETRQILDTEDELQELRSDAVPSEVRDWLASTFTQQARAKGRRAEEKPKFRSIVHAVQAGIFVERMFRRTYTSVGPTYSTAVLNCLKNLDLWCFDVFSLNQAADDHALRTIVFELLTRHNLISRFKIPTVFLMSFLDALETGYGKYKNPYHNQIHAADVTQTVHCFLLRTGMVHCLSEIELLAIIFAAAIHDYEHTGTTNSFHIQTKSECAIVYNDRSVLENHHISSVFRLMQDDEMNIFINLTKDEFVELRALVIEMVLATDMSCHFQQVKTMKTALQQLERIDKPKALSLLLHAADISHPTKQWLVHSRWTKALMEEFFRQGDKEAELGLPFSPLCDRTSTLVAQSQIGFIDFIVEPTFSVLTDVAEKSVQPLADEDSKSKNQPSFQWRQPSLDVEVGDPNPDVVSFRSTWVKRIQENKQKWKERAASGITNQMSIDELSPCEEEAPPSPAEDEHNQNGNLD

CCOc1cnccc1-c1cc(NCc2cnn(C)c2)c2c(n1)c(C)nn2C(C)C [Example 28b, 5-(3-ethoxy-4-pyridyl)-1-isopropyl-3-methyl-N-[(1-methylpyrazol-4-yl)methyl]pyrazolo[4,3-b]pyridin-7-amine]
IC50 [1]: 2.1 nM | IC50 [2]: 33 nM

CCOc1nnccc1-c1cc(NCc2cccc(OC)n2)c2c(n1)c(C)nn2C(C)C [Example 24b, 5-(3-ethoxypyridazin-4-yl)-1-isopropyl-N-[(6-methoxy-2-pyridyl)methyl]-3-methyl-pyrazolo[4,3-b]pyridin-7-amine]
IC50 [1]: 1.4 nM | IC50 [2]: 71 nM

Cc1nn(C(C)C)c2c(NCc3cnn(C)c3)cc(-c3cccc4ncoc34)nc12 [Example 37b, 5-(1,3-benzoxazol-7-yl)-1-isopropyl-3-methyl-N-[(1-methylpyrazol-4-yl)methyl]pyrazolo[4,3-b]pyridin-7-amine]
IC50 [3]: 16 nM | IC50 [1]: 2.4 nM | IC50 [2]: 14 nM

CCOc1ncccc1-c1cc(NCc2nccc3nncn23)c2c(n1)c(C)nn2C(C)C [Example 15a, N-([1,2,4]triazolo[4,3-c]pyrimidin-5-ylmethyl)-5-(2-ethoxypyridin-3-yl)-1-isopropyl-3-methyl-1H-pyrazolo[4,3-b]pyridin-7-amine]
IC50 [3]: 30 nM | IC50 [1]: 4.8 nM | IC50 [2]: 43 nM

CCOc1nnccc1-c1cc(NCc2cccnc2OC)c2c(n1)c(C)nn2C(C)C [Example 7b, 5-(3-ethoxypyridazin-4-yl)-1-isopropyl-N-[(2-methoxy-3-pyridyl)methyl]-3-methyl-pyrazolo[4,3-b]pyridin-7-amine]
IC50 [3]: 11 nM | IC50 [1]: 1.7 nM

CCOc1nnccc1-c1cc(NCc2cnc(C)s2)c2c(n1)c(C)nn2C(C)C [Example 20b, 5-(3-ethoxypyridazin-4-yl)-1-isopropyl-3-methyl-N-[(2-methylthiazol-5-yl)methyl]pyrazolo[4,3-b]pyridin-7-amine]
IC50 [3]: 5.7 nM | IC50 [1]: 1.1 nM | IC50 [2]: 24 nM

CCCOc1cnccc1-c1cc(NCc2cnn(C)c2)c2c(n1)c(C)nn2C(C)C [Example 31b, 1-isopropyl-3-methyl-N-[(1-methylpyrazol-4-yl)methyl]-5-(3-propoxy-4-pyridyl)pyrazolo[4,3-b]pyridin-7-amine]
IC50 [3]: 4.6 nM | IC50 [1]: 0.38 nM | IC50 [2]: 18 nM

Cc1nc2cccc(-c3cc(NCc4cnn(C)c4)c4c(n3)c(C)nn4C(C)C)c2o1 [Example 36b, 1-isopropyl-3-methyl-5-(2-methyl-1,3-benzoxazol-7-yl)-N-[(1-methylpyrazol-4-yl)methyl]pyrazolo[4,3-b]pyridin-7-amine]
IC50 [3]: 14 nM | IC50 [1]: 2.4 nM | IC50 [2]: 28 nM

CCOc1cnccc1-c1cc(NCc2ccn(C)n2)c2c(n1)c(C)nn2C(C)C [Example 27b, 5-(3-ethoxy-4-pyridyl)-1-isopropyl-3-methyl-N-[(1-methylpyrazol-3-yl)methyl]pyrazolo[4,3-b]pyridin-7-amine]
IC50 [3]: 17 nM | IC50 [1]: 1.6 nM | IC50 [2]: 42 nM

CCOc1nnccc1-c1cc(NCc2ncc(F)cn2)c2c(n1)c(C)nn2C(C)C [Example 10b, 5-(3-ethoxypyridazin-4-yl)-N-[(5-fluoropyrimidin-2-yl)methyl]-1-isopropyl-3-methyl-pyrazolo[4,3-b]pyridin-7-amine]
IC50 [3]: 21 nM | IC50 [1]: 2.4 nM | IC50 [2]: 67 nM

CCOc1cnccc1-c1cc(NCc2ncn(C)n2)c2c(n1)c(C)nn2C(C)C [Example 19b, 5-(3-ethoxy-4-pyridyl)-1-isopropyl-3-methyl-N-[(1-methyl-1,2,4-triazol-3-yl)methyl]pyrazolo[4,3-b]pyridin-7-amine]
IC50 [3]: 11 nM | IC50 [1]: 0.91 nM | IC50 [2]: 22 nM

CCOc1ncccc1-c1cc(NCc2cccc3oc(C)nc23)c2c(n1)c(C)nn2C(C)C [Example 11a, 5-(2-ethoxy-3-pyridyl)-1-isopropyl-3-methyl-N-[(2-methyl-1,3-benzoxazol-4-yl)methyl]pyrazolo[4,3-b]pyridin-7-amine]
IC50 [3]: 18 nM | IC50 [1]: 4 nM | IC50 [2]: 26 nM

CCOc1cnccc1-c1cc(NCc2cccnc2F)c2c(n1)c(C)nn2C(C)C [Example 17b, 5-(3-ethoxy-4-pyridyl)-N-[(2-fluoro-3-pyridyl)methyl]-1-isopropyl-3-methyl-pyrazolo[4,3-b]pyridin-7-amine]
IC50 [3]: 20 nM | IC50 [1]: 2.4 nM | IC50 [2]: 37 nM

CCOc1cnccc1-c1cc(NCc2nnc(C)o2)c2c(n1)c(C)nn2C(C)C [Example 34b, 5-(3-ethoxy-4-pyridyl)-1-isopropyl-3-methyl-N-[(5-methyl-1,3,4-oxadiazol-2-yl)methyl]pyrazolo[4,3-b]pyridin-7-amine]
IC50 [3]: 49 nM | IC50 [1]: 7 nM | IC50 [2]: 130 nM

CCOc1ncccc1-c1cc(NCc2cccc3ncoc23)c2c(n1)c(C)nn2C(C)C [Example 9a, N-(1,3-benzoxazol-7-ylmethyl)-5-(2-ethoxy-3-pyridyl)-1-isopropyl-3-methyl-pyrazolo[4,3-b]pyridin-7-amine]
IC50 [3]: 45 nM | IC50 [1]: 5.3 nM | IC50 [2]: 82 nM

CCOc1cnccc1-c1cc(NCc2cccc(F)n2)c2c(n1)c(C)nn2C(C)C [Example 12b, 5-(3-ethoxy-4-pyridyl)-N-[(6-fluoro-2-pyridyl)methyl]-1-isopropyl-3-methyl-pyrazolo[4,3-b]pyridin-7-amine]
IC50 [3]: 22 nM | IC50 [1]: 1.1 nM | IC50 [2]: 61 nM

CCOc1cnccc1-c1cc(NCc2cnn(C)c2)c2c(n1)c(C)nn2C(C)CC (single isomer, unassigned) [Example 32b, 5-(3-ethoxy-4-pyridyl)-3-methyl-N-[(1-methylpyrazol-4-yl)methyl]-1-[1-methylpropyl]pyrazolo[4,3-b]pyridin-7-amine]
IC50 [3]: 57 nM | IC50 [1]: 7.8 nM | IC50 [2]: 180 nM

CCCOc1nnccc1-c1cc(NCc2cnn(C)c2)c2c(n1)c(C)nn2C(C)C [Example 4b, 1-isopropyl-3-methyl-N-[(1-methylpyrazol-4-yl)methyl]-5-(3-propoxypyridazin-4-yl)pyrazolo[4,3-b]pyridin-7-amine]
IC50 [3]: 3.2 nM | IC50 [1]: 0.35 nM | IC50 [2]: 18 nM

CCOc1cnccc1-c1cc(NCc2cc(C)[nH]n2)c2c(n1)c(C)nn2C(C)C [Example 23b, 5-(3-ethoxy-4-pyridyl)-1-isopropyl-3-methyl-N-[(5-methyl-1H-pyrazol-3-yl)methyl]pyrazolo[4,3-b]pyridin-7-amine]
IC50 [3]: 5.5 nM | IC50 [1]: 0.55 nM | IC50 [2]: 12 nM

CCOc1nnccc1-c1cc(NCc2ccn(C)n2)c2c(n1)c(C)nn2C(C)C [Example 9b, 5-(3-ethoxypyridazin-4-yl)-1-isopropyl-3-methyl-N-[(1-methylpyrazol-3-yl)methyl]pyrazolo[4,3-b]pyridin-7-amine]
IC50 [3]: 5.2 nM | IC50 [1]: 0.6 nM | IC50 [2]: 22 nM

CCOc1nnccc1-c1cc(NCc2cccnc2F)c2c(n1)c(C)nn2C(C)C [Example 16b, 5-(3-ethoxypyridazin-4-yl)-N-[(2-fluoro-3-pyridyl)methyl]-1-isopropyl-3-methyl-pyrazolo[4,3-b]pyridin-7-amine]
IC50 [3]: 18 nM | IC50 [1]: 3.4 nM | IC50 [2]: 50 nM

CCOc1cnccc1-c1cc(NCc2cccnc2OC)c2c(n1)c(C)nn2C(C)C [Example 30b, 5-(3-ethoxy-4-pyridyl)-1-isopropyl-N-[(2-methoxy-3-pyridyl)methyl]-3-methyl-pyrazolo[4,3-b]pyridin-7-amine]
IC50 [3]: 27 nM | IC50 [1]: 2.7 nM | IC50 [2]: 65 nM

CCOc1nnccc1-c1cc(NCc2ncn(C)n2)c2c(n1)c(C)nn2C(C)C [Example 18b, 5-(3-ethoxypyridazin-4-yl)-1-isopropyl-3-methyl-N-[(1-methyl-1,2,4-triazol-3-yl)methyl]pyrazolo[4,3-b]pyridin-7-amine]
IC50 [3]: 3.6 nM | IC50 [1]: 0.59 nM | IC50 [2]: 17 nM

CCOc1nnccc1-c1cc(NCc2cccc(F)n2)c2c(n1)c(C)nn2C(C)C [Example 26b, 5-(3-ethoxypyridazin-4-yl)-N-[(6-fluoro-2-pyridyl)methyl]-1-isopropyl-3-methyl-pyrazolo[4,3-b]pyridin-7-amine]
IC50 [3]: 6.5 nM | IC50 [2]: 44 nM

CCOc1nnccc1-c1cc(NCc2cc(C)[nH]n2)c2c(n1)c(C)nn2C(C)C [Example 22b, 5-(3-ethoxypyridazin-4-yl)-1-isopropyl-3-methyl-N-[(5-methyl-1H-pyrazol-3-yl)methyl]pyrazolo[4,3-b]pyridin-7-amine]
IC50 [1]: 0.4 nM | IC50 [2]: 15 nM

CCOc1ncccc1-c1cc(NCc2cccn3cnnc23)c2c(n1)c(C)nn2C(C)C [Example 3a, 5-(2-ethoxy-3-pyridyl)-1-isopropyl-3-methyl-N-([1,2,4]triazolo[4,3-c]pyridin-8-ylmethyl)pyrazolo[4,3-b]pyridin-7-amine]
IC50 [3]: 4.7 nM | IC50 [1]: 0.32 nM

CCOc1nnccc1-c1cc(NCc2cccc3oc(C)nc23)c2c(n1)c(C)nn2C(C)C [Example 14a, 5-(3-ethoxypyridazin-4-yl)-1-isopropyl-3-methyl-N-[(2-methyl-1,3-benzoxazol-4-yl)methyl]pyrazolo[4,3-b]pyridin-7-amine]
IC50 [3]: 9.3 nM | IC50 [1]: 0.21 nM

CCOc1nnccc1-c1cc(NCc2ccccn2)c2c(n1)c(C)nn2C(C)C [Example 14b, 5-(3-ethoxypyridazin-4-yl)-1-isopropyl-3-methyl-N-(2-pyridylmethyl)pyrazolo[4,3-b]pyridin-7-amine]
IC50 [1]: 1.1 nM | IC50 [2]: 53 nM

Cc1nc2c(-c3cc(NCc4cnn(C)c4)c4c(n3)c(C)nn4C(C)C)cccc2o1 [Example 35b, 1-isopropyl-3-methyl-5-(2-methyl-1,3-benzoxazol-4-yl)-N-[(1-methylpyrazol-4-yl)methyl]pyrazolo[4,3-b]pyridin-7-amine]
IC50 [3]: 39 nM | IC50 [2]: 43 nM
